# According to patent US20250179061A1 (SIRONAX LTD., priority 2022, published 2025):
# Structures can show the parent of a compound that is named as a salt.
# Tested on: HT-29 cells
# Experiment: HT-29 necroptosis cell viability assay (TNF-α/SMAC mimetic/zVAD-FMK, CellTiter-Glo)
# Format: cell-based
# Conditions: Homo sapiens, HT-29, HT-29 necroptosis cell viability, IC50 class symbols; read-out: Activity
# Method in brief: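 Necroptosis was triggered by TNF-α (10 ng/ml), SMAC mimetic (6 μM) and zVAD-FMK (10 μM) in serum-free medium during 20 h compound exposure (10 concentrations, threefold steps) of HT-29 cells. IC50 from duplicate dose-responses uses CellTiter-Glo ATP luminescence as viability read-out.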
row,SMILES,IC50 [nM]
1,"N#CC12CC(Nc3cc(Oc4ccc(-n5ncn(Cc6c(F)cccc6F)c5=O)cc4Cl)c(F)cn3)(C1)C2 [Example 392, 3-((4-(2-chloro-4-(4-(2,6-difluorobenzyl)-5-oxo-4,5-dihydro-1H-1,2,4-triazol-1-yl)phenoxy)-5-fluoropyridin-2-yl)amino)bicyclo[1.1.1]pentane-1-carbonitrile]",< 100
2,"CC1(C#N)CCN(c2cc(Oc3ccc(-n4ncn(Cc5c(F)cccc5F)c4=O)cc3F)c(Cl)cn2)C1 (centres unmarked) [Example 393, 1-(5-chloro-4-(4-(4-(2,6-difluorobenzyl)-5-oxo-4,5-dihydro-1H-1,2,4-triazol-1-yl)-2-fluorophenoxy)pyridin-2-yl)-3-methylpyrrolidine-3-carbonitrile]",< 100
3,"CC1(C#N)CCN(c2cc(Oc3ccc(-n4ncn(Cc5c(F)cccc5F)c4=O)cc3F)c(F)cn2)C1 (centres unmarked) [Example 394, 1-(4-(4-(4-(2,6-difluorobenzyl)-5-oxo-4,5-dihydro-1H-1,2,4-triazol-1-yl)-2-fluorophenoxy)-5-fluoropyridin-2-yl)-3-methylpyrrolidine-3-carbonitrile]",< 100
4,"N#Cc1cnc(Cl)cc1Oc1ccc(-n2ncn(Cc3c(F)cccc3F)c2=O)cc1F [Example 395, 6-chloro-4-(4-(4-(2,6-difluorobenzyl)-5-oxo-4,5-dihydro-1H-1,2,4-triazol-1-yl)-2-fluorophenoxy)nicotinonitrile]",1000 to 10000
5,"CC1(N)CN(c2cc(Oc3ccc(-n4ncn(Cc5c(F)cccc5F)c4=O)cc3F)c(C#N)cn2)C1 [Example 396, 6-(3-amino-3-methylazetidin-1-yl)-4-(4-(4-(2,6-difluorobenzyl)-5-oxo-4,5-dihydro-1H-1,2,4-triazol-1-yl)-2-fluorophenoxy)nicotinonitrile]",100 to 1000
6,"Cc1cnc(N2CCC(C)(C#N)C2)cc1Oc1ccc(-n2ncn(Cc3c(F)cccc3F)c2=O)cc1Cl (centres unmarked) [Example 397, 1-(4-(2-chloro-4-(4-(2,6-difluorobenzyl)-5-oxo-4,5-dihydro-1H-1,2,4-triazol-1-yl)phenoxy)-5-methylpyridin-2-yl)-3-methylpyrrolidine-3-carbonitrile]",< 100
7,"Cc1cnc(N2CC(C)(C#N)C2)cc1Oc1ccc(-n2ncn(Cc3c(F)cccc3F)c2=O)cc1Cl [Example 398, 1-(4-(2-chloro-4-(4-(2,6-difluorobenzyl)-5-oxo-4,5-dihydro-1H-1,2,4-triazol-1-yl)phenoxy)-5-methylpyridin-2-yl)-3-methylazetidine-3-carbonitrile]",< 100
8,"CC1(CN)CN(c2cc(Oc3ccc(-n4ncn(Cc5c(F)cccc5F)c4=O)cc3F)c(F)cn2)C1 [Example 399, 2-(4-((2-(3-(aminomethyl)-3-methylazetidin-1-yl)-5-fluoropyridin-4-yl)oxy)-3-fluorophenyl)-4-(2,6-difluorobenzyl)-2,4-dihydro-3H-1,2,4-triazol-3-one]",100 to 1000
9,"N#C[C@@H]1CCN(c2cc(Oc3ccc(-n4ncn(Cc5c(F)cccc5F)c4=O)cc3)ccn2)C1 [Example 400, (R)-1-(4-(4-(4-(2,6-difluorobenzyl)-5-oxo-4,5-dihydro-1H-1,2,4-triazol-1-yl)phenoxy)pyridin-2-yl)pyrrolidine-3-carbonitrile]",< 100
10,"N#C[C@H]1CCN(c2cc(Oc3ccc(-n4ncn(Cc5c(F)cccc5F)c4=O)cc3)ccn2)C1 [Example 401, (S)-1-(4-(4-(4-(2,6-difluorobenzyl)-5-oxo-4,5-dihydro-1H-1,2,4-triazol-1-yl)phenoxy)pyridin-2-yl)pyrrolidine-3-carbonitrile]",< 100
11,"N#Cc1cc(Oc2ccc(-n3ncn(Cc4c(F)cccc4F)c3=O)cc2F)c(F)cn1 [Example 402, 4-(4-(4-(2,6-difluorobenzyl)-5-oxo-4,5-dihydro-1H-1,2,4-triazol-1-yl)-2-fluorophenoxy)-5-fluoropicolinonitrile]",< 100
12,"O=c1n(-c2ccc(Oc3ccncc3)cc2)nc(Cl)n1Cc1ccccc1 [Example 403, 4-benzyl-5-chloro-2-(4-(pyridin-4-yloxy)phenyl)-2,4-dihydro-3H-1,2,4-triazol-3-one]",100 to 1000
13,"N#Cc1ccccc1Oc1ccc(-n2ncn(Cc3c(F)cccc3F)c2=O)cc1 [Example 404, 2-(4-(4-(2,6-difluorobenzyl)-5-oxo-4,5-dihydro-1H-1,2,4-triazol-1-yl)phenoxy)benzonitrile]",100 to 1000
14,"N#Cc1cc(Oc2ccc(-n3ncn(Cc4c(F)cccc4F)c3=O)cc2)ccn1 [Example 405, 4-(4-(4-(2,6-difluorobenzyl)-5-oxo-4,5-dihydro-1H-1,2,4-triazol-1-yl)phenoxy)picolinonitrile]",100 to 1000
15,"N#Cc1cc(Oc2ccc(-n3ncn(Cc4c(F)cccc4F)c3=O)cc2F)c(Cl)cn1 [Example 406, 5-chloro-4-(4-(4-(2,6-difluorobenzyl)-5-oxo-4,5-dihydro-1H-1,2,4-triazol-1-yl)-2-fluorophenoxy)picolinonitrile]",< 100
16,"CN(CC1CCOCC1)c1cc(Oc2ccc(-n3ncn(Cc4c(F)cccc4F)c3=O)cc2)ccn1 [Example 407, 4-[(2,6-difluorophenyl)methyl]-2-[4-({2-[methyl(oxan-4-ylmethyl)amino]pyridin-4-yl}oxy)phenyl]-1,2,4-triazol-3-one]",100 to 1000
17,"CN(CC1CCCCO1)c1cc(Oc2ccc(-n3ncn(Cc4c(F)cccc4F)c3=O)cc2)ccn1 (centres unmarked) [Example 408, 4-(2,6-difluorobenzyl)-2-(4-((2-(methyl((tetrahydro-2H-pyran-2-yl)methyl)amino)pyridin-4-yl)oxy)phenyl)-2,4-dihydro-3H-1,2,4-triazol-3-one]",< 100
18,"CCOC1CN(c2nccc(Oc3ccc(-n4ncn(Cc5c(F)cccc5F)c4=O)cc3)c2N)C1 [Example 409, 2-(4-((3-amino-2-(3-ethoxyazetidin-1-yl)pyridin-4-yl)oxy)phenyl)-4-(2,6-difluorobenzyl)-2,4-dihydro-3H-1,2,4-triazol-3-one]",100 to 1000
19,"Nc1c(Oc2ccc(-n3ncn(Cc4c(F)cccc4F)c3=O)cc2)ccnc1N1CC2(CCOCC2)C1 [Example 410, 2-(4-((3-amino-2-(7-oxa-2-azaspiro[3.5]nonan-2-yl)pyridin-4-yl)oxy)phenyl)-4-(2,6-difluorobenzyl)-2,4-dihydro-3H-1,2,4-triazol-3-one]",100 to 1000
20,"O=c1n(Cc2c(F)cccc2F)cnn1-c1ccc(Oc2cc(N3CC4(CCN4)C3)ncc2Cl)c(F)c1 [Example 411, 2-(4-((5-chloro-2-(1,6-diazaspiro[3.3]heptan-6-yl)pyridin-4-yl)oxy)-3-fluorophenyl)-4-(2,6-difluorobenzyl)-2,4-dihydro-3H-1,2,4-triazol-3-one hydrochloride]",< 100
21,"O=c1n(Cc2c(F)cccc2F)cnn1-c1ccc(Oc2cc(N3CC4(CCCN4)C3)ncc2Cl)c(F)c1 [Example 412, 2-(4-((5-chloro-2-(2,5-diazaspiro[3.4]octan-2-yl)pyridin-4-yl)oxy)-3-fluorophenyl)-4-(2,6-difluorobenzyl)-2,4-dihydro-3H-1,2,4-triazol-3-one]",100 to 1000
22,"C[C@H]1C[C@@H](N)CN1c1cc(Oc2ccc(-n3ncn(Cc4c(F)cccc4F)c3=O)cc2F)c(Cl)cn1 [Example 413, 2-(4-((2-((2S,4R)-4-amino-2-methylpyrrolidin-1-yl)-5-chloropyridin-4-yl)oxy)-3-fluorophenyl)-4-(2,6-difluorobenzyl)-2,4-dihydro-3H-1,2,4-triazol-3-one]",< 100
23,"CNC1(C)CN(c2cc(Oc3ccc(-n4ncn(Cc5c(F)cccc5F)c4=O)cc3F)c(Cl)cn2)C1 [Example 414, 2-(4-((5-chloro-2-(3-methyl-3-(methylamino)azetidin-1-yl)pyridin-4-yl)oxy)-3-fluorophenyl)-4-(2,6-difluorobenzyl)-2,4-dihydro-3H-1,2,4-triazol-3-one]",> 10000
24,"C[C@H]1[C@@H](N)CN1c1cc(Oc2ccc(-n3ncn(Cc4c(F)cccc4F)c3=O)cc2F)c(F)cn1 [Example 415, 2-(4-((2-((2S,3S)-3-amino-2-methylazetidin-1-yl)-5-fluoropyridin-4-yl)oxy)-3-fluorophenyl)-4-(2,6-difluorobenzyl)-2,4-dihydro-3H-1,2,4-triazol-3-one]",< 100
25,"CC1(N)CN(c2nccc(Oc3ccc(-n4ncn(Cc5c(F)cccc5F)c4=O)cc3F)c2F)C1 [Example 416, 2-(4-((2-(3-amino-3-methylazetidin-1-yl)-3-fluoropyridin-4-yl)oxy)-3-fluorophenyl)-4-(2,6-difluorobenzyl)-2,4-dihydro-3H-1,2,4-triazol-3-one]",< 100
26,"Cc1c(Oc2ccc(-n3ncn(Cc4c(F)cccc4F)c3=O)cc2F)ccnc1N1CC(C)(N)C1 [Example 417, 2-(4-((2-(3-amino-3-methylazetidin-1-yl)-3-methylpyridin-4-yl)oxy)-3-fluorophenyl)-4-(2,6-difluorobenzyl)-2,4-dihydro-3H-1,2,4-triazol-3-one]",< 100
27,"O=c1n(Cc2c(F)cccc2F)cnn1-c1ccc(Oc2cc(N3CC4(CNC4)C3)ncc2F)c(F)c1 [Example 418, 4-(2,6-difluorobenzyl)-2-(3-fluoro-4-((5-fluoro-2-(2,6-diazaspiro[3.3]heptan-2-yl)pyridin-4-yl)oxy)phenyl)-2,4-dihydro-3H-1,2,4-triazol-3-one]",< 100
28,"CCNC1(C)CN(c2cc(Oc3ccc(-n4ncn(Cc5c(F)cccc5F)c4=O)cc3F)c(F)cn2)C1 [Example 419, 4-(2,6-difluorobenzyl)-2-(4-((2-(3-(ethylamino)-3-methylazetidin-1-yl)-5-fluoropyridin-4-yl)oxy)-3-fluorophenyl)-2,4-dihydro-3H-1,2,4-triazol-3-one]",100 to 1000
29,"CC1(N)CN(c2nccc(Oc3ccc(-n4ncn(Cc5c(F)cccc5F)c4=O)cc3F)c2Cl)C1 [Example 420, 2-(4-((2-(3-amino-3-methylazetidin-1-yl)-3-chloropyridin-4-yl)oxy)-3-fluorophenyl)-4-(2,6-difluorobenzyl)-2,4-dihydro-3H-1,2,4-triazol-3-one]",< 100
